Data set [1] deals with cGAMP activated THP-1 cells. The data set can be described thus: ENPP1 inhibitors screening on cGAMP activated THP-1 cells (IFN-β ELISA). It counts as cell-based. Particulars: THP-1 cells with 2′3′-cGAMP, 24 hours, FIGS. 1A-1E. The method, then: THP-1 cells from bulk cultures were counted and suspended in RPMI 1640, 20% FBS, 2.5 mM L-alanyl-L-glutamine at a concentration of 5.5×10^6 cells/mL. The THP-1 cells were subsequently seeded into 96 well round bottom plates 180 μL/well (1×10^6 cells per well), incubated for 1 hour at 37° C., 5% CO2.
Test compounds were screened in triplicate on THP-1 cells at a final concentration of 10 μM. A working solutions at 0.2 mM. Each well contains 180 μL of THP-1 cell suspension, 10 μL (30 μM, 40 μM or 50 μM) 2′3′-cGAMP (InvivoGen, catalog #tlrl-nacga23) solution (600 μM, 800 μM or 1000 μM) and 10 μL test compound working solution. Incubate for 1 hour.
Vehicle control wells contain 2′3′-cGAMP at concentrations of […] and 50 μM without any test compound. Positive control, 2′3′-cGAMP or 2′,3′-cGAM(PS)2 (Rp/Sp) (InvivoGen, cat #tlrl-nacga2srs) at 40 μM and 80 μM (final concentration).
The final assay volume were 200 μL/well contains: 1) THP-1 cells=180 μL, 2) test compounds=10 μL, 3) 2′3′-cGAMP or 2′3′-cGAM(PS)2 (Rp/Sp) or vehicle control=10 μL.
After incubation for 24 hours at 37° C., 5% CO2, the supernatants were harvested at 200×g for 10 minutes. Cell culture supernatants were then transferred to a clean plate and stored at −80° C. until ready to analyze for IFN-β levels. The IFN-β levels in cell culture supernatants were determined by ELISA kits (PBL Assay Science, catalog #41410) according to the manufacturer's instructions.
The % increase measured for IFN-β in cells treated by the test compounds 12, 48, 89, 103 and 121 relative to that of untreated cells were tested (as shown in FIGS. 1A-1E).
(In an ELISA, binding on a coated surface is turned into a signal by an enzyme label.)

Data set [2] deals with T1, human soluble ENPP1 (Homo sapiens, UniProt P22413).
T1 construct: 20 ng of human soluble ENPP1
T1 sequence (P22413 103-925 limits assumed): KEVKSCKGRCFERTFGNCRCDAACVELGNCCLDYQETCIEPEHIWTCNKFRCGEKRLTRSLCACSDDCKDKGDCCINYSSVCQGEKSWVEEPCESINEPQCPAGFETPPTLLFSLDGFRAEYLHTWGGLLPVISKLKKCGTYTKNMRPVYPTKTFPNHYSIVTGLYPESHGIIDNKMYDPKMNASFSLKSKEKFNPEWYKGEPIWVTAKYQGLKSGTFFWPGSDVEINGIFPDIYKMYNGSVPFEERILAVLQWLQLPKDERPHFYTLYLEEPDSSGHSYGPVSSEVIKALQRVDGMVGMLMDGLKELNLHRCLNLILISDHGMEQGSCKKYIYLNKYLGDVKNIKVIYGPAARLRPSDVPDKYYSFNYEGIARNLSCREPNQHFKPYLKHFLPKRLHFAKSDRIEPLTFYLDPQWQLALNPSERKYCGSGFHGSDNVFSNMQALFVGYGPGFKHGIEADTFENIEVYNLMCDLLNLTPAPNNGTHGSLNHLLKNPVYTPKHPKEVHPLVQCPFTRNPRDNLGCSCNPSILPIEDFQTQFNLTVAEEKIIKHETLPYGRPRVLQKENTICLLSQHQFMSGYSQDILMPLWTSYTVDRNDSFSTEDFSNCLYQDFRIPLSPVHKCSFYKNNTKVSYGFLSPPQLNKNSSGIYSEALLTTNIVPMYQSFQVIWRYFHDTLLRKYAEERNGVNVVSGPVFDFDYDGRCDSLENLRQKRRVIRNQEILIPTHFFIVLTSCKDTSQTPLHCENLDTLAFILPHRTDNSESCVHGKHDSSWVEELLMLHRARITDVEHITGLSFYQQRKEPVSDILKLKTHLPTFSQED
Nature of the data set: ENPP1 activity assay using p-Nitrophenyl-5′-AMP as a substrate. The data set is classed as biochemical. The procedure, abridged: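 Human soluble ENPP1 (35 ng) preincubated with inhibitor 30 min at RT, then p-nitrophenyl-5′-AMP added (3 mM solution, 2× final) and incubated 1 h at RT. p-Nitrophenolate release read at OD 405 nm; % inhibition vs no-inhibitor and blank controls, IC50 from four-parameter fit.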

Data set [3] in a line: Pharmacokinetics in mice. It counts as in vivo. Particulars: mouse, plasma, male CD-1 mice; for AUC / clearance / half-life / Vd: 1 mg/kg, iv; for Vd: read-out: Vdss. The procedure, abridged:
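Male CD-1 mice (3 per group) dosed at 1 mg/kg IV bolus and 5 mg/kg oral gavage in 5% DMSO/40% PEG400/55% water. Jugular blood sampled from 0.033 (IV) or 0.083 (PO) up to 24 h. Plasma measured by LC/MS/MS, with PK parameters from non-compartmental analysis.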

Consider `COc1cc2ncc3ncn(Cc4ccc(S(N)(=O)=O)cn4)c3c2cc1OC` [Compound 12, 6-((7,8-dimethoxy-1H-imidazo[4,5-c]quinolin-1-yl)methyl)pyridine-3-sulfonamide], for which the “% increase measured for IFN-β relative to that of untreated cells” value in data set [1] is recorded as “potently increased the IFN-β levels at very low concentrations”. This compound registered an IC50 in data set [2] of 3.9 nM. Besides, in data set [3], the exposure (AUC) was determined as 93 ng·h/mL, the clearance worked out at 180 mL/min/kg, the half-life was 15 min and the Vd came to 2.9 L/kg. Also, the bioavailability in data set [3] (oral gavage (PO) at 5 mg/kg vs IV 1 mg/kg) came out at 0%.

For `COc1ccc2c(ncc3nc(C)n(Cc4ccc(S(N)(=O)=O)cc4)c32)n1` [Compound 48, 4-((7-methoxy-2-methyl-1H-imidazo[4,5-c][1,8]naphthyridin-1-yl)methyl)benzenesulfonamide], the “% increase measured for IFN-β relative to that of untreated cells” value in data set [1] is on record as “potently increased the IFN-β levels at very low concentrations”. In data set [2], this compound registered a 50% inhibitory concentration (IC50) of 0.44 nM. In data set [3], the AUC turned out to be 239 ng·h/mL, the clearance came to 70 mL/min/kg, the half-life was 19.8 min and the Vd came out at 1.7 L/kg.

Consider `COc1ccc2c(n1)nc(C)c1nc(C)n(Cc3ccc(S(N)(=O)=O)cn3)c12` [Compound 89, 6-((7-methoxy-2,4-dimethyl-1H-imidazo[4,5-c][1,8]naphthyridin-1-yl)methyl)pyridine-3-sulfonamide], for which the “% increase measured for IFN-β relative to that of untreated cells” value in data set [1] is on record as “potently increased the IFN-β levels at very low concentrations”. Also, half-maximal inhibition in data set [2] (IC50) was put at 2.1 nM. In data set [3], the AUC amounted to 656 ng·h/mL, the clearance was 26 mL/min/kg, the half-life is 32.4 min and the Vd is 0.8 L/kg.

Usually IC50 stands for the midpoint of a concentration-inhibition curve. A higher IC50 goes with a need for much substance. A word on the AUC: it is the area under the concentration-time curve, a measure of exposure. Low values mean low exposure, high ones high exposure. In general, clearance refers to a measure of how efficiently the substance is removed, as volume per time. As a reminder, the half-life is the time in which the quantity being followed falls by half. Read a high half-life as slow loss. As a reminder, the bioavailability is the share of a dose that reaches the circulation, judged against a reference dose that is usually intravenous. The low end stands for little systemic uptake, the high end for much systemic uptake.

Values taken from US11673889B2, “Substituted imidazo[4,5-c][1,8]naphthyridines as phosphodiesterase inhibitors” (Nanjing Zhengxiang Pharmaceuticals Co., Ltd., priority 2019, dated 2023).
